Activity calls are given as the source filed them. How the calls were made is not given here.
System: CCRIS mutagenicity, Ames/micronucleus/aberration tests
Assay: CCRIS mutagenicity studies

Structure (SMILES): C=CC(=O)O
- mutagenic call (Test System: AMES SALMONELLA TYPHIMURIUM, Strain/Indicator: TA97, Metabolic Activation: NONE, Method: PREINCUBATION): inactive; negative
- mutagenic call (Test System: AMES SALMONELLA TYPHIMURIUM, Strain/Indicator: TA97, Metabolic Activation: S-9, Method: PREINCUBATION): inactive; negative
- mutagenic call (Test System: AMES SALMONELLA TYPHIMURIUM, Strain/Indicator: TA98, Metabolic Activation: HAMSTER, LIVER, S-9, AROCLOR 1254 (10%), Method: PREINCUBATION): inactive; negative
- mutagenic call (Test System: AMES SALMONELLA TYPHIMURIUM, Strain/Indicator: TA98, Metabolic Activation: HAMSTER, LIVER, S-9, AROCLOR 1254, Method: STANDARD PLATE): inactive; negative
- mutagenic call (Test System: AMES SALMONELLA TYPHIMURIUM, Strain/Indicator: TA98, Metabolic Activation: NONE, Method: PREINCUBATION): inactive; negative
- mutagenic call (Test System: AMES SALMONELLA TYPHIMURIUM, Strain/Indicator: TA98, Metabolic Activation: NONE, Method: STANDARD PLATE): inactive; negative
- mutagenic call (Test System: AMES SALMONELLA TYPHIMURIUM, Strain/Indicator: TA98, Metabolic Activation: RAT LIVER S-9, PHENOBARBITAL AND BETA-NAPHTHOFLAVONE, Method: PREINCUBATION): inactive; negative
- mutagenic call (Test System: AMES SALMONELLA TYPHIMURIUM, Strain/Indicator: TA98, Metabolic Activation: RAT, LIVER, S-9, AROCLOR 1254 (10%), Method: PREINCUBATION): inactive; negative
- mutagenic call (Test System: AMES SALMONELLA TYPHIMURIUM, Strain/Indicator: TA98, Metabolic Activation: RAT, LIVER, S-9, AROCLOR 1254, Method: STANDARD PLATE): inactive; negative
- mutagenic call (Test System: AMES SALMONELLA TYPHIMURIUM, Strain/Indicator: TA98, Metabolic Activation: RAT, LIVER, S-9, AROCLOR, Method: STANDARD PLATE): inactive; negative
- mutagenic call (Test System: AMES SALMONELLA TYPHIMURIUM, Strain/Indicator: TA100, Metabolic Activation: HAMSTER, LIVER, S-9, AROCLOR 1254 (10%), Method: PREINCUBATION): inactive; negative
- mutagenic call (Test System: AMES SALMONELLA TYPHIMURIUM, Strain/Indicator: TA100, Metabolic Activation: HAMSTER, LIVER, S-9, AROCLOR 1254, Method: STANDARD PLATE): inactive; negative
- mutagenic call (Test System: AMES SALMONELLA TYPHIMURIUM, Strain/Indicator: TA100, Metabolic Activation: NONE, Method: PREINCUBATION): inactive; negative
- mutagenic call (Test System: AMES SALMONELLA TYPHIMURIUM, Strain/Indicator: TA100, Metabolic Activation: NONE, Method: STANDARD PLATE): inactive; negative
- mutagenic call (Test System: AMES SALMONELLA TYPHIMURIUM, Strain/Indicator: TA100, Metabolic Activation: RAT LIVER S-9, PHENOBARBITAL AND BETA-NAPHTHOFLAVONE, Method: PREINCUBATION): inactive; negative
- mutagenic call (Test System: AMES SALMONELLA TYPHIMURIUM, Strain/Indicator: TA100, Metabolic Activation: RAT, LIVER, S-9, AROCLOR 1254 (10%), Method: PREINCUBATION): inactive; negative
- mutagenic call (Test System: AMES SALMONELLA TYPHIMURIUM, Strain/Indicator: TA100, Metabolic Activation: RAT, LIVER, S-9, AROCLOR 1254, Method: STANDARD PLATE): inactive; negative
- mutagenic call (Test System: AMES SALMONELLA TYPHIMURIUM, Strain/Indicator: TA100, Metabolic Activation: RAT, LIVER, S-9, AROCLOR, Method: STANDARD PLATE): inactive; negative
- mutagenic call (Test System: AMES SALMONELLA TYPHIMURIUM, Strain/Indicator: TA102, Metabolic Activation: NONE, Method: PREINCUBATION): inactive; negative
- mutagenic call (Test System: AMES SALMONELLA TYPHIMURIUM, Strain/Indicator: TA102, Metabolic Activation: RAT LIVER S-9, PHENOBARBITAL AND BETA-NAPHTHOFLAVONE, Method: PREINCUBATION): inactive; negative
- mutagenic call (Test System: AMES SALMONELLA TYPHIMURIUM, Strain/Indicator: TA102, Metabolic Activation: S-9, Method: PREINCUBATION): inactive; negative
- mutagenic call (Test System: AMES SALMONELLA TYPHIMURIUM, Strain/Indicator: TA104, Metabolic Activation: NONE, Method: PREINCUBATION): inactive; negative
- mutagenic call (Test System: AMES SALMONELLA TYPHIMURIUM, Strain/Indicator: TA104, Metabolic Activation: RAT LIVER S-9, PHENOBARBITAL AND BETA-NAPHTHOFLAVONE, Method: PREINCUBATION): inactive; negative
- mutagenic call (Test System: AMES SALMONELLA TYPHIMURIUM, Strain/Indicator: TA1535, Metabolic Activation: HAMSTER, LIVER, S-9, AROCLOR 1254 (10%), Method: PREINCUBATION): inactive; negative
- mutagenic call (Test System: AMES SALMONELLA TYPHIMURIUM, Strain/Indicator: TA1535, Metabolic Activation: HAMSTER, LIVER, S-9, AROCLOR 1254, Method: STANDARD PLATE): inactive; negative
- mutagenic call (Test System: AMES SALMONELLA TYPHIMURIUM, Strain/Indicator: TA1535, Metabolic Activation: NONE, Method: PREINCUBATION): inactive; negative
- mutagenic call (Test System: AMES SALMONELLA TYPHIMURIUM, Strain/Indicator: TA1535, Metabolic Activation: NONE, Method: STANDARD PLATE): inactive; negative
- mutagenic call (Test System: AMES SALMONELLA TYPHIMURIUM, Strain/Indicator: TA1535, Metabolic Activation: RAT LIVER S-9, PHENOBARBITAL AND BETA-NAPHTHOFLAVONE, Method: PREINCUBATION): inactive; negative
- mutagenic call (Test System: AMES SALMONELLA TYPHIMURIUM, Strain/Indicator: TA1535, Metabolic Activation: RAT, LIVER, S-9, AROCLOR 1254 (10%), Method: PREINCUBATION): inactive; negative
- mutagenic call (Test System: AMES SALMONELLA TYPHIMURIUM, Strain/Indicator: TA1535, Metabolic Activation: RAT, LIVER, S-9, AROCLOR 1254, Method: STANDARD PLATE): inactive; negative
- mutagenic call (Test System: AMES SALMONELLA TYPHIMURIUM, Strain/Indicator: TA1535, Metabolic Activation: RAT, LIVER, S-9, AROCLOR, Method: STANDARD PLATE): inactive; negative
- mutagenic call (Test System: AMES SALMONELLA TYPHIMURIUM, Strain/Indicator: TA1537, Metabolic Activation: HAMSTER, LIVER, S-9, AROCLOR 1254 (10%), Method: PREINCUBATION): inactive; negative
- mutagenic call (Test System: AMES SALMONELLA TYPHIMURIUM, Strain/Indicator: TA1537, Metabolic Activation: HAMSTER, LIVER, S-9, AROCLOR 1254, Method: STANDARD PLATE): inactive; negative
- mutagenic call (Test System: AMES SALMONELLA TYPHIMURIUM, Strain/Indicator: TA1537, Metabolic Activation: NONE, Method: PREINCUBATION): inactive; negative
- mutagenic call (Test System: AMES SALMONELLA TYPHIMURIUM, Strain/Indicator: TA1537, Metabolic Activation: NONE, Method: STANDARD PLATE): inactive; negative
- mutagenic call (Test System: AMES SALMONELLA TYPHIMURIUM, Strain/Indicator: TA1537, Metabolic Activation: RAT LIVER S-9, PHENOBARBITAL AND BETA-NAPHTHOFLAVONE, Method: PREINCUBATION): inactive; negative
- mutagenic call (Test System: AMES SALMONELLA TYPHIMURIUM, Strain/Indicator: TA1537, Metabolic Activation: RAT, LIVER, S-9, AROCLOR 1254 (10%), Method: PREINCUBATION): inactive; negative
- mutagenic call (Test System: AMES SALMONELLA TYPHIMURIUM, Strain/Indicator: TA1537, Metabolic Activation: RAT, LIVER, S-9, AROCLOR 1254, Method: STANDARD PLATE): inactive; negative
- mutagenic call (Test System: AMES SALMONELLA TYPHIMURIUM, Strain/Indicator: TA1537, Metabolic Activation: RAT, LIVER, S-9, AROCLOR, Method: STANDARD PLATE): inactive; negative
- mutagenic call (Test System: AMES SALMONELLA TYPHIMURIUM, Strain/Indicator: TA1538, Metabolic Activation: HAMSTER, LIVER, S-9, AROCLOR 1254, Method: STANDARD PLATE): inactive; negative
- mutagenic call (Test System: AMES SALMONELLA TYPHIMURIUM, Strain/Indicator: TA1538, Metabolic Activation: NONE, Method: STANDARD PLATE): inactive; negative
- mutagenic call (Test System: AMES SALMONELLA TYPHIMURIUM, Strain/Indicator: TA1538, Metabolic Activation: RAT, LIVER, S-9, AROCLOR 1254, Method: STANDARD PLATE): inactive; negative
- mutagenic call (Test System: AMES SALMONELLA TYPHIMURIUM, Strain/Indicator: TA1538, Metabolic Activation: RAT, LIVER, S-9, AROCLOR, Method: STANDARD PLATE): inactive; negative
- mutagenic call (Test System: CHINESE HAMSTER OVARY, Strain/Indicator: CHO-K1-BH4 (HGPRT), Metabolic Activation: NONE): inactive; negative
- mutagenic call (Test System: CHINESE HAMSTER OVARY, Strain/Indicator: CHO-K1-BH4 (HGPRT), Metabolic Activation: RAT, LIVER, S-9, AROCLOR 1254): inactive; negative
- mutagenic call (Test System: E.COLI, Strain/Indicator: WP2UVRA/PKM101, Metabolic Activation: NONE, Method: PREINCUBATION): inactive; negative
- mutagenic call (Test System: E.COLI, Strain/Indicator: WP2UVRA/PKM101, Metabolic Activation: RAT LIVER S-9, PHENOBARBITAL AND BETA-NAPHTHOFLAVONE, Method: PREINCUBATION): inactive; negative
- mutagenic call (Test System: E.COLI, Strain/Indicator: WP2UVRA, Metabolic Activation: NONE, Method: PREINCUBATION): inactive; negative
- mutagenic call (Test System: E.COLI, Strain/Indicator: WP2UVRA, Metabolic Activation: RAT LIVER S-9, PHENOBARBITAL AND BETA-NAPHTHOFLAVONE, Method: PREINCUBATION): inactive; negative
- mutagenic call (Test System: MOUSE LYMPHOMA, Strain/Indicator: L5178Y (TK+/TK-), Metabolic Activation: RAT, LIVER, S-9, AROCLOR 1254, Method: SUSPENSION /PLATE): active; positive
- mutagenic call (Test System: MOUSE LYMPHOMA, Strain/Indicator: L5178Y (TK+/TK-), Metabolic Activation: RAT, LIVER, S-9, AROCLOR 1254, Method: SUSPENSION/PLATE): active; positive. reevaluation of results: positive
- mutagenic call (Test System: MOUSE LYMPHOMA, Strain/Indicator: L5178Y (TK+/TK-), Metabolic Activation: RAT, LIVER, S-9, AROCLOR, Method: SUSPENSION/PLATE): inactive; negative
- mutagenic call (Test System: UDS RAT HEPATOCYTES, Strain/Indicator: THY INCORP, Metabolic Activation: NONE, Method: AUTORADIOGRAPHY): inactive; negative
- mutagenic call (Test System: UDS RODENT CELLS, Strain/Indicator: SHE CELL-MEDIATED, Metabolic Activation: NONE, Method: LIQUID SCINTILLATION COUNTING (THYMIDINE INCORPORATION)): inactive; negative
- mutagenic call (Test System: UDS RODENT HEPATOCYTES, Strain/Indicator: THY INCORP (NON-S-PHASE), Metabolic Activation: NONE, Method: AUTORADIOGRAPHY): inactive; negative

From PubChem BioAssay AID1259407 (Chemical Carcinogenesis Research Information System (CCRIS), 2018)
